Data reported in ChEMBL document CHEMBL4425081, “Design and Development of Microsomal Prostaglandin E2 Synthase-1 Inhibitors: Challenges and Future Directions” (J Med Chem, 2016).

Columns and labels:
[1] = target: T1, Prostaglandin G/H synthase 1 (Ovis aries, UniProt P05979); assay: Inhibition of ovine COX-1 assessed as 12-HHT formation preincubated for 5 mins followed by addition of arachidonic acid as substrate measured after 5 mins by HPLC analysis
T1 sequence (P05979 whole entry): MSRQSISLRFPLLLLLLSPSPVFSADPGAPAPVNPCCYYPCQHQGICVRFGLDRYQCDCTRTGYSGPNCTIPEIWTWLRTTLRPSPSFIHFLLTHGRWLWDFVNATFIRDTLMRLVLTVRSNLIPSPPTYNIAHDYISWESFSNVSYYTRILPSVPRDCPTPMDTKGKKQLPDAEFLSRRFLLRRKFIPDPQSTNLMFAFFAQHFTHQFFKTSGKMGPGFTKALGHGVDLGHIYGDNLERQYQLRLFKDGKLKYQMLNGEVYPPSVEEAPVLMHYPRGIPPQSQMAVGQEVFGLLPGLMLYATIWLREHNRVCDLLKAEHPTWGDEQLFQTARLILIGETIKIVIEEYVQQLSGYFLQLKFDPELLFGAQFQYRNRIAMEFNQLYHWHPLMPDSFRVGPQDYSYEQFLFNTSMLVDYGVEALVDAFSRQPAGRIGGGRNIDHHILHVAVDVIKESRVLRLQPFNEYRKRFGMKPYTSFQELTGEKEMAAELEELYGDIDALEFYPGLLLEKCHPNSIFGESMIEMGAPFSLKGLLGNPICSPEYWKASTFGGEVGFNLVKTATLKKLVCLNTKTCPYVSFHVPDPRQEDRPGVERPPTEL

[2] = target: T2, Arachidonate 5-lipoxygenase-activating protein (Homo sapiens, UniProt P20292); assay: Antagonist activity at FLAP in human PMNC assessed as inhibition of A23187-induced LTB4 biosynthesis pre-incubated for 2 mins followed by addition of A23187 measured after 5 mins by radioimmunoassay
T2 sequence (P20292 whole entry): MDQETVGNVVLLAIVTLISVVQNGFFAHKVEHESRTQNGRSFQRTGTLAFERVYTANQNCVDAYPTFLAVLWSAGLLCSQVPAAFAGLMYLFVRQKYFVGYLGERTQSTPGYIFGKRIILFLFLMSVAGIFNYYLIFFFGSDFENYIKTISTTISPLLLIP

Prostaglandin E synthase [3] = target: T3, Prostaglandin E synthase (Homo sapiens, UniProt O14684); assay: Inhibition of mPGES-1 in human A549 cells assessed as PGE2[…] formation preincubated for 60 mins prior to IL-beta stimulation measured after 24 hrs by EIA; type: cell-based
T3 sequence (O14684 whole entry): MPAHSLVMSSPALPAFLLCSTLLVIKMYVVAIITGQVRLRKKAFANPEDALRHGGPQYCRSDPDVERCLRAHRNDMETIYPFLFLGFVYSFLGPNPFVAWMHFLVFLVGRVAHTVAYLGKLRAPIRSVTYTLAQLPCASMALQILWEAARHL

Prostaglandin E synthase [4] = target: T3, Prostaglandin E synthase; assay: Inhibition of human mPGES-1 expressed in CHO-K1 cells using PGH2 as substrate assessed as PGE2 formation preincubated for 20 mins followed by addition of substrate measured after 60 secs by HTRF assay; type: cell-based

IC50 [1] | IC50 [2] | IC50 (Prostaglandin E synthase [3]) | IC50 (Prostaglandin E synthase [4]) | Structure (SMILES)
8000 nM | 2.5 nM |  |  | CC(C)c1ccc2c(c1)c(SC(C)(C)C)c(CC(C)(C)C(=O)O)n2Cc1ccc(Cl)cc1
 |  | 1.2 nM | 0.1 nM | Cn1c(Nc2cc(CNC(=O)C3(C(F)(F)F)CC3)ccc2Cl)nc2cc(C(=O)NCC3CC3)c(OCC(F)F)cc21
